According to article PMC8615215, “Structural and Biochemical Characterization of Thioredoxin-2 from Deinococcus radiodurans” (Antioxidants, 2021):

Molecular target: T1, DrTrxR (Deinococcus radiodurans, UniProt Q9RSY7)
T1 construct: gene DR_1982; residues 2-325, non-cleavable N-terminal His6 tag (MHHHHHH), pET-22b, expressed in E. coli BL21(DE3), Ni-NTA and size exclusion
Assay: NADPH consumption at […] nm, insulin reduction coupled through DrTrx1 or DrTrx2
Type: biochemical
Conditions: 0.1 mM NADPH, 0.1 uM DrTrxR, 0.1 uM DrTrx1 or 0.5 uM DrTrx2, bovine insulin, 50 mM Tris-HCl pH 7.4, room temperature

T1 sequence (Q9RSY7 entry or part of it): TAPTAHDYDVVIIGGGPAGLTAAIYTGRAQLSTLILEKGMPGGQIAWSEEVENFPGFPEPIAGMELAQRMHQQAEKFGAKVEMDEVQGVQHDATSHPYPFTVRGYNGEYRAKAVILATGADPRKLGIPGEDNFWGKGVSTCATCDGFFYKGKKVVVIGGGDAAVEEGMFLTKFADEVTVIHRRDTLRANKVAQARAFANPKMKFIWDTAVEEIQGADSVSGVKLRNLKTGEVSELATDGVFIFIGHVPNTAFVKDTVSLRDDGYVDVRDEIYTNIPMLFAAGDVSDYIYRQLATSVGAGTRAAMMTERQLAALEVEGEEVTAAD

SMILES: NC(=O)C1=CN([C@@H]2O[C@H](COP(=O)(O)OP(=O)(O)OC[C@H]3O[C@@H](n4cnc5c(N)ncnc54)[C@H](OP(=O)(O)O)[C@@H]3O)[C@@H](O)[C@H]2O)C=CC1 [NADPH]
- NADPH consumption at 340 nm, insulin reduction coupled through DrTrx1 or DrTrx2: In the presence of DrTrxR/NADPH, both DrTrx1 and DrTrx2 caused a notable decrease
